Laboratory results from patent publication US4975538A, “Antibiotic sulfonylaminocarbonyl activated beta-lactams” (The Upjohn Company, priority 1989, dated 1990).
In brackets after ≈: the same amount, converted by molar mass.

Legend:
Test in all cases: Minimum Inhibitory Concentration (MIC), agar dilution in Mueller Hinton Agar
Assay type in all cases: cell-based
Serratia Marcescens = conditions: 20 h, culture number 6888
Experimental: (§1) The compounds of this invention and their respective pharmaceutically acceptable salts have antibiotic activity against a variety of gram-negative bacteria including Escherichia coli, Klebsiella pneumoniae, and Pseudomonas aeruginosa. The compounds are useful for treating bacterial infections in animals, including and most preferably humans. Compounds of the invention are tested for in vitro antimicrobial activity using standard testing procedures such as the determination of minimum inhibitory concentration (MIC) by methods described in "Methods for Dilution Antimicrobial Susceptibility Tests for Bacteria That Grow Aerobically" (M7-A) Published December 1985 by the National Committee for Clinical Laboratory Standards, 771 East Lancaster Avenue, Villanova, Pa. 19084. Briefly, MIC values are determined in unsupplemented Mueller Hinton Agar (MHA). The compounds tested are diluted serially into molten MHA at 47° C. The agar is poured into petri dishes and allowed to harden. The various bacteria used for testing are grown overnight on MHA at 35° C. and transferred to Tryptiease Soy Broth (TSB) until a turbidity of 0.5 McFarland standard is obtained. The bacteria are diluted one to twenty in TSB and inoculated on the plates (1 μl using a Steers replicator).

Streptococcus Faecalis = conditions: Enterococcus faecalis, 20 h; culture number 694
Experimental: as §1

Staphylococcus Aureus = conditions: 20 h
Experimental: as §1

Klebsiella Pneumoniae = conditions: 20 h, culture number 58
Experimental: as §1

Citrobacter Freundli = conditions: 20 h, culture number 3507
Experimental: as §1

Pseudomonas Aeruginosa = conditions: 20 h
Experimental: as §1

Escherichia Coli = conditions: 20 h
Experimental: as §1

Enterobacter Cloacae = conditions: 20 h
Experimental: as §1

Proteus Vulgaris = conditions: 20 h, culture number 9679
Experimental: as §1

Streptococcus Pneumoniae = conditions: 20 h, culture number 41
Experimental: as §1

Klebsiella Oxytoca = conditions: 20 h
Experimental: as §1

Streptococcus Pyogenes = conditions: 20 h, culture number 152
Experimental: as §1

[1] = system: Staphylococcus epidermidis; conditions: 20 h, culture number 30031
Experimental: as §1

SMILES | MIC (Serratia Marcescens) [µg/mL] | MIC (Streptococcus Faecalis) [µg/mL] | MIC (Staphylococcus Aureus; culture number 3665) [µg/mL] | MIC (Staphylococcus Aureus; culture number 6685) [µg/mL] | MIC (Staphylococcus Aureus; culture number 9218) [µg/mL] | MIC (Klebsiella Pneumoniae) [µg/mL] | MIC (Citrobacter Freundli) [µg/mL] | MIC (Pseudomonas Aeruginosa; culture number 231) [µg/mL] | MIC (Pseudomonas Aeruginosa; culture number 9191) [µg/mL] | MIC (Escherichia Coli; culture number 9379) [µg/mL] | MIC (Escherichia Coli; culture number 9380) [µg/mL] | MIC (Escherichia Coli; culture number 9451) [µg/mL] | MIC (Enterobacter Cloacae; culture number 9381) [µg/mL] | MIC (Enterobacter Cloacae; culture number 9382) [µg/mL] | MIC (Proteus Vulgaris) [µg/mL] | MIC (Streptococcus Pneumoniae) [µg/mL] | MIC (Klebsiella Oxytoca; culture number 9383) [µg/mL] | MIC (Klebsiella Oxytoca; culture number 9384) [µg/mL] | MIC (Streptococcus Pyogenes) [µg/mL] | other results
CC(C)(O/N=C(\C(=O)N[C@H]1CN(C(=O)NS(=O)(=O)N2CCN(NC(=O)c3cc(=O)c(O)cn3C3CC3)C2=O)C1=O)c1csc(N)n1)C(=O)O [Compound E42, Propanoic acid, 2-[[[1-(2-amino-4-thiazolyl)-2-[[1-[[[[3-[[(1-cyclopropyl-1,4-dihydro-5-hydroxy-4-oxo-2-pyridinyl)carbonyl]amino]-2-oxo-1-imidazolidinyl]sulfonyl]amino]carbonyl]-2-oxo-3-azetidinyl]amino]-2-oxoethylidene]amino]oxy]-2-methyl-, [S-(Z)]-] | 0.5 (≈ 0.69 µM) | > 64 | > 64 | > 64 | > 64 | 2 (≈ 2.76 µM) | 0.5 (≈ 0.69 µM) | 16 (≈ 22.1 µM) | 16 (≈ 22.1 µM) | 0.06 (≈ 0.0828 µM) | 0.03 (≈ 0.0414 µM) | 0.125 (≈ 0.172 µM) | 64 (≈ 88.3 µM) | 4 (≈ 5.52 µM) | 2 (≈ 2.76 µM) | > 64 | 1 (≈ 1.38 µM) | 0.5 (≈ 0.69 µM) | 64 (≈ 88.3 µM) | 
Cn1c(-c2cc(=O)c(O)c[nH]2)nn(S(=O)(=O)NC(=O)N2C[C@H](NC(=O)/C(=N\OC(C)(C)C(=O)O)c3csc(N)n3)C2=O)c1=O [E23 (b)] | 0.015 (≈ 0.0229 µM) | > 64 | > 64 | > 64 | > 64 | 0.25 (≈ 0.382 µM) | 0.03 (≈ 0.0458 µM) | 0.125 (≈ 0.191 µM) | 0.25 (≈ 0.382 µM) | < 0.008 | < 0.008 | < 0.008 | 4 (≈ 6.11 µM) | 0.5 (≈ 0.764 µM) | 0.03 (≈ 0.0458 µM) | > 64 | 0.03 (≈ 0.0458 µM) | 0.03 (≈ 0.0458 µM) | 16 (≈ 24.4 µM) | 
Nc1nc(/C(=N/OCC(=O)O)C(=O)N[C@H]2CN(C(=O)NS(=O)(=O)N3CCN(NC(=O)c4[nH]ccc(=O)c4O)C3=O)C2=O)cs1 [Compound E40, Acetic acid, [[[1-(2-amino-4-thiazolyl)-2-[[1-[[[[3-[[(1,4-dihydro-3-hydroxy-4-oxo-2-pyridinyl)carbonyl]amino]-2-oxo-1-imidazolidinyl]sulfonyl]-amino]carbonyl]-2-oxo-3-azetidinyl]amino]-2-oxoethylidene]amino]oxy]-, [S-(Z)]-] | 2 (≈ 3.05 µM) | > 64 | > 64 | > 64 | > 64 | 0.5 (≈ 0.762 µM) | 0.25 (≈ 0.381 µM) | 64 (≈ 97.5 µM) | 64 (≈ 97.5 µM) | 0.5 (≈ 0.762 µM) | 1 (≈ 1.52 µM) | 0.5 (≈ 0.762 µM) | 64 (≈ 97.5 µM) | 1 (≈ 1.52 µM) | 0.25 (≈ 0.381 µM) | > 64 | 2 (≈ 3.05 µM) | 0.5 (≈ 0.762 µM) | 64 (≈ 97.5 µM) | MIC (Staphylococcus Aureus; culture number 9213): > 64 µg/mL; MIC [1]: > 64 µg/mL
CC(C)(O/N=C(\C(=O)N[C@H]1CN(C(=O)NS(=O)(=O)N2CCN(NC(=O)c3ccn(O)c(=O)c3)C2=O)C1=O)c1csc(N)n1)C(=O)O [E42 (d), Propanoic acid, 2-[[[1-(2-amino-4-thiazolyl)-2-[[1-[[[[3-[[(1,2-dihydro-1-hydroxy-2-oxo-4-pyridinyl)carbonyl]amino]2-oxo-1-imidazolidinyl]sulfonyl]amino]carbonyl]-2-oxo-3-azetidinyl]amino]-2-oxoethylidene]amino]oxy]-2-methyl-, [S-(Z)]-] | 0.5 (≈ 0.73 µM) | > 64 | > 64 | > 64 | > 64 | 0.25 (≈ 0.365 µM) | 0.25 (≈ 0.365 µM) | 1 (≈ 1.46 µM) | 1 (≈ 1.46 µM) | 0.25 (≈ 0.365 µM) | 0.25 (≈ 0.365 µM) | 0.125 (≈ 0.183 µM) | 64 (≈ 93.5 µM) | 0.5 (≈ 0.73 µM) | 0.03 (≈ 0.0438 µM) | 64 (≈ 93.5 µM) | 4 (≈ 5.84 µM) | 0.25 (≈ 0.365 µM) | 4 (≈ 5.84 µM) | 
CC(C)(O/N=C(\C(=O)N[C@H]1CN(C(=O)NS(=O)(=O)N2CCN(C(=O)c3cc(=O)c(O)c[nH]3)NC2=O)C1=O)c1csc(N)n1)C(=O)O [Compound E18, Propanoic acid, 2-[[[1-(2-amino-4-thiazolyl)-2-[[1-[[[[1-[(1,4-dihydro-5-hydroxy-4-oxo-2-pyridinyl)carbonyl]tetrahydro-3-oxo-1,2,4-triazin-4(1H)-yl]sulfonyl]amino]carbonyl]-2-oxo-3-azetidinyl]amino]-2-oxoethylidene]amino]oxy]-2-methyl-[S-(Z)]-] | 0.06 (≈ 0.0876 µM) | > 64 | > 64 | > 64 | > 64 | 0.5 (≈ 0.73 µM) | 0.06 (≈ 0.0876 µM) | 0.25 (≈ 0.365 µM) | 0.125 (≈ 0.183 µM) | < 0.008 | < 0.008 | < 0.008 | 16 (≈ 23.4 µM) | 1 (≈ 1.46 µM) | 0.06 (≈ 0.0876 µM) | > 64 | 0.125 (≈ 0.183 µM) | 0.03 (≈ 0.0438 µM) | 16 (≈ 23.4 µM) | 
